PMC3169566, “Rationally Designed Interfacial Peptides Are Efficient In Vitro Inhibitors of HIV-1 Capsid Assembly with Antiviral Activity” (PLoS ONE, 2011)
Peptide text beside a SMILES is read from it.

Columns and labels:
[1] = target: T1, CTD (C-terminal domain of HIV-1 capsid protein CA) (Human immunodeficiency virus type 1 group M subtype B, UniProt P04591); assay: CTD binding by fluorescence titration; settings: 20 µM wild-type dimeric CTD, 25°C, 50 mM phosphate buffer pH 7.0, 1:1 binding isotherm, read-out: CTD-binding K D
T1 construct: CA protein and the isolated CTD (either unlabelled or labelled) were purified as described previously; made in house
Method: Spectra were collected on a Cary Eclipse spectrofluorimeter (Varian, CA, USA). A concentration of 20 µM CTD and increasing peptide concentrations were used for titration experiments carried out at 25°C in 50 mM phosphate buffer pH 7.0. Excitation wavelength was 280 nm or 295 nm, and emission fluorescence was collected between 300 nm and 400 nm. The excitation and emission slits were set to 5 nm. The response time was 1 s. The dissociation constant of each complex was calculated by fitting the changes observed either in: (i) the fluorescence intensity at a particular wavelength; or (ii) the value of the average energy <λ> [42] for a fixed CTD concentration versus the concentration of added peptide as described.

[2] = Solubility under the conditions of the NMR experiments; format: physicochemical; settings: aqueous buffer, long incubations at a relatively high temperature, 50 mM phosphate buffer pH 7.0, read-out: Concentration at which the peptide remained fully soluble
Method: NMR spectra were acquired at 20°C on a Bruker Avance DRX-500 spectrometer (Bruker GmbH, Germany) equipped with a triple resonance probe and z-pulse field gradients. Sodium trimethylsilyl [2,2,3,3-^2H4] propionate (Sigma) was used as the internal chemical shift reference in the homonuclear experiments. All experiments were carried out in 50 mM phosphate buffer pH 7.0. Assignments of the heteronuclear single quantum coherence (HSQC) NMR spectra were those previously obtained for the monomeric CTD [43], [44].
We first analyzed whether the CAC1-derived peptides CAC1C and CAC1M had any tendency to self-associate. […] The hydrodynamic radius (Rh) of the three peptides was similar (Table 1).

[3] = target: T2, HIV-1 capsid protein CA (Human immunodeficiency virus type 1 group M subtype B, UniProt P04591); assay: CA polymerization in vitro (turbidity at 350 nm) with Ficoll-70 crowding agent; format: biochemical; settings: 20 µM CA
T2 construct: CA protein and the isolated CTD (either unlabelled or labelled) were purified as described previously; made in house
Method: Assembly reactions were carried out as described previously, [53] with some modifications. In general, the polymerization mixtures contained 50 mM sodium phosphate buffer pH 7.4, 2.25 M NaCl, 20 µM CA, and 100 g/l Ficoll-70 (GE HealthCare) as a macromolecular crowding agent. Where indicated, Ficoll-70 was omitted and the final CA concentration was raised to 46 µM. The experiments were initiated by introducing an appropriate volume of a CA solution in 50 mM phosphate buffer into a spectrophotometer cuvette (10-mm pathlength, 20 mm^2 internal section), and the assembly reaction was triggered by adding the appropriate volume of a solution containing 4 M NaCl, 179 g/l Ficoll-70 in 50 mM sodium phosphate buffer pH 7.4, to get the final concentrations desired for each component in a final volume of 500 µl, followed by rapid mixing by repeated inversion of the cell. The pH of the final reaction mixture was checked in a test sample. For inhibition assays, CA was mixed with the appropriate amounts of the peptides, and incubated for 30 minutes before triggering the reaction as indicated above. The time-dependent increase in the optical density at 350 nm as a measure of the light scattered by the assembled particles was monitored at 25°C using a UV-1603 spectrophotometer (Shimadzu, Japan), with data points collected every six seconds. Traces of the variation in the turbidity were analyzed as described previously, [53].

[4] = test system: U87-CD4-CXCR4 cells; assay: Transport of peptides into cells (fluorescence microscopy, flow cytometry); format: cell-based, Human; settings: rhodamine-labelled peptides in complex with Chariot 1:1, 3 h at 37°C
Method: To transport the peptides into NB324K or U87-CD4-CXCR4 cells a commercial cell-penetrating peptide (Chariot, Active Motif) was used, according to the manufacturer's recommendations. For fluorescence microscopy analyses, Chariot-peptide binding was accomplished by incubating a mixture containing between 5 µg and 50 µg of either FITC-labelled peptide or rhodamine-labelled peptide and the Chariot peptide at a 1∶1 molar ratio in 100 µl aliquots. Each 100 µl aliquot of the preincubated mixture was added to one well of a 24-well plate containing NB324K or U87-CD4-CXCR4 seeded the previous day (5·10^4 and 1.5·10^5 cells/well, respectively) and 100 µl of serum-free DMEM medium were added. The cells were incubated for 1–3 h, 800 µl DMEM containing 10% FBS were added, and incubation was continued for 1 h. Cells were fixed with a 1∶1 methanol∶acetone solution, their nucleus were stained with 4′,6-diamidino-2-phenylindol dihydrochloride (DAPI, Calbiochem), and cells were examined and imaged using an Axiovert200 (Zeiss) fluorescence microscope and/or a LSM-510 (Zeiss) confocal fluorescence microscope.
FITC-labelled peptides were transported into NB324K or U87-CD4-CXCR4 cells as described above. […] The resuspended cells were analyzed in a FACSCalibur flow cytometer (Becton Dickinson, USA).

[5] = test system: HIV-1 strain HXB2; assay: Inhibition of HIV-1 production and infection in cultured cells (p24 antigen); format: cell-based; settings: U87-CD4-CXCR4 cells, Chariot-mediated transport
Method: U87-CD4-CXCR4 cells from cultured monolayers were collected using 0.25% trypsin and resuspended in DMEM supplemented with 10% FBS (without antibiotics). Cells were seeded in 96-well plates at a density of 3.5×10^4 cells/well and incubated for 24 h. Then, the cells were incubated as described above with mixtures of the corresponding peptides and the Chariot peptide at the appropriate concentrations. After three hours of incubation, the cells were washed with PBS and infected with HIV-1 at a multiplicity of infection of 0.0015 (0.0015 TCID50/cell). After incubation for 2 h at 37°C, the cells were washed with PBS and DMEM supplemented with 10% FBS, 0.5 mg/ml geneticin and 1 µg/ml puromycin were added, and the infected cells were further incubated at 37°C. Viral replication was quantified by measuring HIV-1 CA (p24 antigen) production in the culture supernatant 72 h after infection, using an enzyme-linked immunoassay (INNOTEST HIV-antigen, Innogenetics).

[6] = test system: U87-CD4-CXCR4 cells; settings: without cell-penetrating peptide; cited from earlier work
[7] = peptide:CA molar ratio of 5, 100 g/l Ficoll-70

CSCC[C@H](NC(=O)[C@H](Cc1c[nH]c2ccccc12)NC(=O)[C@H](C)NC(=O)[C@H](CCCCN)NC(=O)[C@@H](NC(=O)[C@H](CO)NC(=O)[C@H](CO)NC(=O)[C@H](CO)NC(=O)[C@H](C)NC(=O)[C@H](CO)NC(=O)[C@@H](N)CCC(=O)O)C(C)C)C(=O)N[C@H](C(=O)N[C@@H](CCC(=O)O)C(=O)N[C@H](C(=O)N[C@@H](CC(C)C)C(=O)N[C@@H](CC(C)C)C(=O)N[C@H](C(=O)N[C@@H](CCC(N)=O)C(=O)N[C@@H](CC(N)=O)C(=O)N[C@@H](C)C(N)=O)C(C)C)[C@@H](C)O)[C@@H](C)O [CAC1C] (H-ESASSSVKAWMTETLLVQNA-NH2)
Kd [1]: 19 ± 8 µM
solubility [2]: ≥ 200 µM

CSCC[C@H](NC(=O)[C@H](Cc1c[nH]c2ccccc12)NC(=O)[C@H](C)NC(=O)[C@H](CCCCN)NC(=O)[C@@H](NC(=O)[C@H](CO)NC(=O)[C@H](CO)NC(=O)[C@H](C)NC(=O)[C@H](C)NC(=O)[C@H](CO)NC(=O)[C@H](CCC(=O)O)NC(=O)[C@@H](N)CO)C(C)C)C(=O)N[C@H](C(=O)N[C@@H](CCC(=O)O)C(=O)N[C@H](C(=O)N[C@@H](CC(C)C)C(=O)N[C@@H](CC(C)C)C(=O)N[C@H](C(=O)N[C@@H](C)C(=O)N[C@@H](CC(N)=O)C(=O)N[C@H](C(=O)N[C@@H](CO)C(=O)N[C@@H](CO)C(N)=O)[C@@H](C)O)C(C)C)[C@@H](C)O)[C@@H](C)O [CAC1M] (H-SESAASSVKAWMTETLLVANTSS-NH2)
Higher reduction in polymerization rate compared to CAC1 [3, 7]: ~30%
Higher reduction in total capsid production compared to CAC1 [3, 7]: about 20%
Kd [1]: 8 ± 1 µM
solubility [2]: ≥ 200 µM
Chariot-mediated transport of peptides into HIV-1-susceptible cells [4]: had been achieved

ITFEDLLDYYGP [CAI]
Inhibition of in vitro assembly of HIV-1 capsid-like particles, single inhibitor ([3]; 100 g/l Ficoll-70, 2.25 M NaCl, pH 7.4, 25°C, 30 min preincubation, inhibitor:CA molar ratios up to 10 (CAI 0.1-0.5)): very efficient
Inhibitory activity of single peptides on HIV-1 production ex vivo ([5]; MOI 0.0015, p24 at 72 h, H4 tested up to close to 2 mM): at most a weak inhibitory activity
Peptide concentration required for weak inhibitory activity on HIV-1 production ex vivo ([5]; p24 at 72 h): > 1 mM
Chariot-mediated transport of peptides into HIV-1-susceptible cells [4]: had been achieved
Ability of the peptide to penetrate cells [6]: unable to penetrate cells
